Experimental data as given in patent US5849560A, “Proteases causing degradation of amyloid β-protein precursor” (priority 1993, dated 1998).
Non-standard residues stand in square brackets, D forms with d. Residues, ends and D or L forms follow the SMILES beside them. *: point of attachment. Sta = CC(C)C[C@H](N)[C@@H](O)CC(=O)O; Isovaleryl = CC(C)CC(=O)*; Cbz = O=C(OCc1ccccc1)*; CH2F = FC*

What was measured:
[1] = target: T1, "Met cut" metalloprotease (AD metalloprotease) purified from AD brain homogenate (Homo sapiens, UniProt P52888); assay: Effect of additives on synthetic peptide substrate (P1) degrading activity of the purified Met cut metalloprotease; format: biochemical; conditions: for effect on metalloprotease activity (in words): concentrations as in Table II, divalent ions at 2 mM; for remaining activity at 5000 µM: reagent conc. 5.0 mM; for remaining activity at 200 µM: reagent conc. 0.2 mM; for remaining activity at 150 µM: reagent conc. 0.15 mM; for remaining activity at 140 µM: reagent conc. 0.14 mM
T1 construct: isolate and purify an AD metalloprotease from AD brain homogenate; from tissue; host or cells: brain of Alzheimer's disease patients
Protocol: The different protease fractions are monitored for proteolytic activity against iodinated peptide "P1". Incubations are carried out at 37° C. in 50 mM Tris-Cl, pH 7.4, in the presence of 1 mM MgCl2 +1 mM DTT. The proteolytic products are separated by TLC on cellulose microcrystalline plates, using n-butanol:pyridine:acetic acid:water, 15:10:3:12 (v/v), as a solvent, followed by autoradiography. […] ID NO. 1] to His-Ser-Glu-Val-Lys-Met [SEQ, ID NO. 2] were quantified with a Molecular Dynamics ImageQuant™ v3.0 scanning densitometer or a Bioscan system 200 imaging scanner. […] One unit of Met cut metalloprotease activity under these conditions was defined as converting 1 μg of P1 to His-Ser-Glu-Val-Lys-Met [SEQ. ID NO. 2] in 1 min.
Referring now to Table II, the effects of various additives on the activity degrading the synthetic substrate (P1) were examined. The metalloprotease sample as incubated with the appropriate amount of additive and assayed for remaining activity, as described above. Control reactions with no reagent, or containing only the solvent of the reagent were always included. Reactions were allowed to proceed for 45 min at 4° C., except E-64 which was incubated for 15 or 30 min (b and c respectively) and iodoacetamide was incubated at 37° C. for 30 min.
Stock solutions of phenylmethylsulfonyl fluoride (PMSF)", E-64, 1,10 phenanthroline, calpain inhibitor, Z-Phe-Phe-CH2 F (Enzyme Systems Products, Livermore, Calif.) were dissolved in ethanol. […] ZINCOV (Calbiochem, Calif.) and phosphoramidon (Sigma, USA), were also dissolved in water. Pepstatin A was dissolved in methanol. The susceptibility of the protease activity to various divalent cations was determined by including metals at a final concentration of 2 mM in the assay reaction mixture.

[2] = system: Ca2+ activated serine protease (serine AD proteolytic factor) from AD brain; assay: Peptide degradation assay (125I-P1, TLC) with the serine AD proteolytic factor and inhibitors; format: biochemical, human
[3] = reagent conc. 1.0 mM, 45 min at 4° C.
[4] = concentrations as in Table II (iodoacetamide 8.0 mM, leupeptin 0.2 mM), read-out: partial inhibitory effect on the protease

T1 sequence (P52888 whole entry): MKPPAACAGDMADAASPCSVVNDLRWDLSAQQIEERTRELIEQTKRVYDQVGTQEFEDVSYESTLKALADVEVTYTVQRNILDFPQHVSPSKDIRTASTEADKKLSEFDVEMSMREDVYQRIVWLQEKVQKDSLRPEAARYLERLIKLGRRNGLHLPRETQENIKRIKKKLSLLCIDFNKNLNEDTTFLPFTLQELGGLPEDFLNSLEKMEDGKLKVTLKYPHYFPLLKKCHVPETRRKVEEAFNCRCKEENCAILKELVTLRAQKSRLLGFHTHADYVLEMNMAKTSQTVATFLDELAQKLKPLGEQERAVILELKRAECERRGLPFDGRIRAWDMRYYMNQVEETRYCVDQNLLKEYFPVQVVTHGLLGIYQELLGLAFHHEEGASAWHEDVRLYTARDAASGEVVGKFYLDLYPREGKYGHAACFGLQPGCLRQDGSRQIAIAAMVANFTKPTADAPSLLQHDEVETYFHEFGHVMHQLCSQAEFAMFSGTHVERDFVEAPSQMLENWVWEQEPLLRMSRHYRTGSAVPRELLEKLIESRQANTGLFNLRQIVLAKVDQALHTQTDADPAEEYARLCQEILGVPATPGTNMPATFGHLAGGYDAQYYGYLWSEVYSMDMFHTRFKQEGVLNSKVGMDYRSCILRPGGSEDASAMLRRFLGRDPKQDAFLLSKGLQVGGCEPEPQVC

Q: With `CC(C)C[C@H](NP(=O)(O)O[C@@H]1O[C@@H](C)[C@H](O)[C@@H](O)[C@H]1O)C(=O)N[C@@H](Cc1c[nH]c2ccccc12)C(=O)O` [Phosphoramidon] as the molecule, how does the remaining activity at 1000 µM [1, 3] read?
A: 89.5%

Q: `c1cnc2c(c1)ccc1cccnc12` [1,10 phenanthroline] was tested. Which “effect on metalloprotease activity (in words)” value [1] did it give?
A: Strong inhibition

Q: What about the remaining activity at 4000 µM ([1]; reagent conc. 4.0 mM, 45 min at 4° C.) of the same molecule?
A: 0%

Q: For `CC(C)C[C@H](NC(=O)[C@@H](O)[C@H](N)Cc1ccccc1)C(=O)O` [Bestatin], which remaining activity at 2 µM ([1]; reagent conc. 0.002 mM, 45 min at 4° C.) is on record?
A: 60%

Q: `CCN1C(=O)C=CC1=O` [N-ethylmaleimide] was tested. Which “effect on metalloprotease activity (in words)” value [1] did it give?
A: strong inhibition

Q: And the remaining activity at 5000 µM ([1]; 45 min at 4° C.)?
A: 7.9%

Q: What does the source list for `CC(=O)N[C@@H](CC(C)C)C(=O)N[C@@H](CC(C)C)C(=O)N[C@H](C=O)CCCNC(=N)N` [Leupeptin]?
A: inhibition at 200 µM [1, 4]: 36.3%; remaining activity at 200 µM ([1]; 45 min at 4° C.): 63.7%

Q: For `C[C@H](NC(=O)[C@H](C)NC(CCc1ccccc1)C(=O)O)C(=O)N[C@@H](Cc1ccccc1)C(=O)Nc1ccc(C(=O)O)cc1` (stereo partly drawn) [CPP-Ala-Ala-Phe-pAB], which “effect on metalloprotease activity (in words)” value [1] is on record?
A: strongly inhibited

Q: What about the remaining activity at 15 µM ([1]; reagent conc. 0.015 mM, 45 min at 4° C.) of the same molecule?
A: 47.5%

Q: What about the remaining activity at 150 µM ([1]; 45 min at 4° C.) of the same molecule?
A: 28%

Q: Which results are given for `CC(C)CC(NC(=O)C1OC1C(=O)O)C(=O)NCCCCN=C(N)N` (stereo not shown) [E-64]?
A: effect on metalloprotease activity (in words) [1]: less; remaining activity at 140 µM ([1]; incubated 15 min (b)): 57.5%; remaining activity at 140 µM ([1]; incubated 30 min (c)): 27.3%

Q: For `O=C(N[C@@H](Cc1ccccc1)C(=O)N[C@@H](Cc1ccccc1)C(=O)CF)OCc1ccccc1` [Z-Phe-Phe-CH2F] (Cbz-Phe-Phe-CH2F), which remaining activity at 200 µM ([1]; 45 min at 4° C.) is on record?
A: 82.7%

Q: What does the source list for `CC(C)CC(C(=O)NO)C(=O)N[C@@H](C)C(=O)NCC(N)=O` (stereo partly shown) [ZINCOV]?
A: effect on metalloprotease activity (in words) [1]: Strong inhibition; % Activity Remaining [1, 3]: 42.4%

Q: Which “% Activity Remaining” value ([1]; reagent conc. 7.0 mM, 45 min at 4° C.) does the source give for `O=S(=O)(F)Cc1ccccc1` [PMSF, phenylmethylsulfonyl fluoride] here?
A: 100%

Q: Which “effect on cleavage of 125I-P1 by the serine AD proteolytic factor (in words)” value (from here on “effect on cleavage of 125I-P1”) [2] does the source give for `O=C(O)CN(CCOCCOCCN(CC(=O)O)CC(=O)O)CC(=O)O` [EGTA] here?
A: prevent cleavage

Q: And the “effect on metalloprotease activity (in words)” value [1]?
A: Strong inhibition

Q: What about the remaining activity at 7500 µM ([1]; reagent conc. 7.5 mM, 45 min at 4° C.) of the same molecule?
A: 0%

Q: For `CC(C)CC(=O)N[C@H](C(=O)N[C@H](C(=O)N[C@@H](CC(C)C)[C@@H](O)CC(=O)N[C@@H](C)C(=O)N[C@@H](CC(C)C)[C@@H](O)CC(=O)O)C(C)C)C(C)C` [Pepstatin A] (Isovaleryl-VV[Sta]A[Sta]-OH), which remaining activity at 150 µM ([1]; 45 min at 4° C.) is on record?
A: 100%

Q: Which “% Activity Remaining” value ([1]; reagent conc. 0.03 mM, 45 min at 4° C.) does the source give for Aprotinin here?
A: 100%

Q: `O=C(O)c1cc[c]([Hg][OH])cc1` [Hydroxymercurybenzoate, hydroxymercurybenzoate] was tested. Which “effect on metalloprotease activity (in words)” value [1] did it give?
A: strong inhibition

Q: And the “% Activity Remaining” value ([1]; reagent conc. 1.6 mM, 45 min at 4° C.)?
A: 0%

Q: What about the “reversal of inhibition by the reducing agent (DTT)” value ([1]; stoichiometrically increasing concentrations of DTT) of the same molecule?
A: readily reversed

Q: For `O[C@H](CS)[C@H](O)CS` (racemic) [Dithiothreitol, dithiothreitol], which “effect on metalloprotease activity (in words)” value [1] is on record?
A: required for the activity

Q: And the “% Activity Remaining” value ([1]; reagent conc. 0.0 mM)?
A: 0%

Q: And the remaining activity at 1000 µM [1, 3]?
A: 100%

Q: What about the remaining activity at 2500 µM ([1]; reagent conc. 2.5 mM) of the same molecule?
A: 70.8%

Q: What about the remaining activity at 5000 µM ([1]; 45 min at 4° C.) of the same molecule?
A: 25.5%

Q: albumin was tested. Which “effect on cleavage of 125I-P1” value [2] did it give?
A: did not influence the activity

Q: Which inhibition at 8000 µM [1, 4] does the source give for `NC(=O)CI` [Iodoacetamide] here?
A: 34%

Q: What about the remaining activity at 8000 µM ([1]; reagent conc. 8.0 mM, 37° C. for 30 min) of the same molecule?
A: 66%

B1: ACT: serine protease inhibitor α1-antichymotrypsin (Calbiochem) (protein, UniProt P01011 24-423, looked up)
Alpha-1-antichymotrypsin: HPNSPLDEENLTQENQDRGTHVDLGLASANVDFAFSLYKQLVLKAPDKNVIFSPLSISTALAFLSLGAHNTTLTEILKGLKFNLTETSEAEIHQSFQHLLRTLNQSSDELQLSMGNAMFVKEQLSLLDRFTEDAKRLYGSEAFATDFQDSAAAKKLINDYVKNGTRGKITDLIKDLDSQTMMVLVNYIFFKAKWEMPFDPQDTHQSRFYLSKKKWVMVPMMSLHHLTIPYFRDEELSCTVVELKYTGNASALFILPDQDKMEEVEAMLLPETLKRWRDSLEFREIGELYLPKFSISRDYNLNDILLQLGIEEAFTSKADLSGITGARNLAVSQVVHKAVLDVFEEGTEASAATAVKITLLSALVETRTIVRFNRPFLMIIVPTDTQNIFFMSKVTNPKQA
Q: How did the “effect on cleavage of 125I-P1” value [2] turn out when B1 was run?
A: inhibited cleavage

B2: protease nexin 1: protease nexin 1 (protein, UniProt P07093 20-398, looked up)
Glia-derived nexin: SHFNPLSLEELGSNTGIQVFNQIVKSRPHDNIVISPHGIASVLGMLQLGADGRTKKQLAMVMRYGVNGVGKILKKINKAIVSKKNKDIVTVANAVFVKNASEIEVPFVTRNKDVFQCEVRNVNFEDPASACDSINAWVKNETRDMIDNLLSPDLIDGVLTRLVLVNAVYFKGLWKSRFQPENTKKRTFVAADGKSYQVPMLAQLSVFRCGSTSAPNDLWYNFIELPYHGESISMLIALPTESSTPLSAIIPHISTKTIDSWMSIMVPKRVQVILPKFTAVAQTDLKEPLKVLGITDMFDSSKANFAKITTGSENLHVSHILQKAKIEVSEDGTKASAATTAILIARSSPPWFIVDRPFLFFIRHNPTGAVLFMGQINKP
Q: For B2, which “effect on cleavage of 125I-P1” value [2] is on record?
A: did not influence the activity

B3: Soybean Trypsin Inhibitor: Soybean Trypsin Inhibitor, protease inhibitor tested in Table II (protein, UniProt P01070 25-205, looked up)
Trypsin inhibitor A: DFVLDNEGNPLENGGTYYILSDITAFGGIRAAPTGNERCPLTVVQSRNELDKGIGTIISSPYRIRFIAEGHPLSLKFDSFAVIMLCVGIPTEWSVVEDLPEGPAVKIGENKDAMDGWFRLERVSDDEFNNYKLVFCPQQAEDDKCGDIGISIDHDDGTRRLVVSKNKPLVVQFQKLDKESL
Q: How did the “% Activity Remaining” value ([1]; reagent conc. 0.01 mM, 45 min at 4° C.) turn out when B3 was run?
A: 100%
